Results as given in patent publication US11065314B2, “Peptides and combination of peptides for use in immunotherapy against breast cancer and other cancers” (Immatics Biotechnologies GmbH, priority 2015, dated 2021).

Columns and labels:
[1] = tested on: CD8+ T cells of healthy HLA-A*02 donors; assay: In vitro T-cell priming (aAPC with pMHC and anti-CD28), pMHC multimer readout; assay type: cell-based, human; conditions: for Wells positive [%]: HLA-A*02 restricted peptides, positive wells and donors among evaluable, Table 10B
Excerpt: In order to obtain information regarding the immunogenicity of the TUMAPs of the present invention, the inventors performed investigations using an in vitro T-cell priming assay based on repeated stimulations of CD8+ T cells with artificial antigen presenting cells (aAPCs) loaded with peptide/MHC complexes and anti-CD28 antibody.
In order to perform in vitro stimulations by artificial antigen presenting cells loaded with peptide-MHC complex (pMHC) and anti-CD28 antibody, the inventors first isolated CD8+ T cells from fresh HLA-A*02 leukapheresis products via positive selection using CD8 microbeads (Miltenyi Biotec, Bergisch-Gladbach, Germany) of healthy donors obtained from the University clinics Mannheim, Germany, after informed consent.
PBMCs and isolated CD8+ lymphocytes were incubated in T-cell medium (TCM) until use consisting of RPMI-Glutamax (Invitrogen, Karlsruhe, Germany) supplemented with 10% heat inactivated human AB serum (PAN-Biotech, Aidenbach, Germany), 100 U/ml Penicillin/100 μg/ml Streptomycin (Cambrex, Cologne, Germany), 1 mM sodium pyruvate (CC Pro, Oberdorla, Germany), 20 μg/ml Gentamycin (Cambrex). 2.5 ng/ml IL-7 (PromoCell, Heidelberg, Germany) and 10 U/ml IL-2 (Novartis Pharma, Nümberg, Germany) were also added to the TCM at this step.
Generation of pMHC/anti-CD28 coated beads, T-cell stimulations and readout was performed in a highly defined in vitro system using four different pMHC molecules per stimulation condition and 8 different pMHC molecules per readout condition.
The purified co-stimulatory mouse IgG2a anti human CD28 Ab 9.3 (Jung et al., 1987) was chemically biotinylated using Sulfo-N-hydroxysuccinimidobiotin as recommended by the manufacturer (Perbio, Bonn, Germany). Beads used were 5.6 μm diameter streptavidin coated polystyrene particles (Bangs Laboratories, Illinois, USA).
800.000 beads/200 μl were coated in 96-well plates in the presence of 4×12.5 ng different biotin-pMHC, washed and 600 ng biotin anti-CD28 were added subsequently in a volume of 200 μl. Stimulations were initiated in 96-well plates by co-incubating 1×10^6 CD8+ T cells with 2×10^5 washed coated beads in 200 μl TCM supplemented with 5 ng/ml IL-12 (PromoCell) for 3 days at 37° C. Half of the medium was then exchanged by fresh TCM supplemented with 80 U/ml IL-2 and incubating was continued for 4 days at 37° C. This stimulation cycle was performed for a total of three times. For the pMHC multimer readout using 8 different pMHC molecules per condition, a two-dimensional combinatorial coding approach was used as previously described (Andersen et al., 2012) with minor modifications encompassing coupling to 5 different fluorochromes. Finally, multimeric analyses were performed by staining the cells with Live/dead near IR dye (Invitrogen, Karlsruhe, Germany), CD8-FITC antibody clone SK1 (BD, Heidelberg, Germany) and fluorescent pMHC multimers. For analysis, a BD LSRII SORP cytometer equipped with appropriate lasers and filters was used. Peptide specific cells were calculated as percentage of total CD8+ cells. Evaluation of multimeric analysis was done using the FlowJo software (Tree Star, Oregon, USA). In vitro priming of specific multimer+CD8+ lymphocytes was detected by comparing to negative control stimulations.

HLA-A*02:01 = HLA-A*02:01 (Homo sapiens, UniProt P04439, D140Y/D185E/D98H/E176V/E277Q/G131W/G231S/I119V/I121R/I166T/I218V/L300P/L318F/N151K/N90K/P208A/P217A/Q86G/Q94H/R138H/R169H/T345S); assay: MHC binding assay: UV-ligand exchange with β2m ELISA; conditions: binding to HLA-A*02:01, UV-ligand exchange
Excerpt: Candidate peptides for T cell based therapies according to the present invention were further tested for their MHC binding capacity (affinity). The individual peptide-MHC complexes were produced by UV-ligand exchange, where a UV-sensitive peptide is cleaved upon UV-irradiation, and exchanged with the peptide of interest as analyzed. Only peptide candidates that can effectively bind and stabilize the peptide-receptive MHC molecules prevent dissociation of the MHC complexes. To determine the yield of the exchange reaction, an ELISA was performed based on the detection of the light chain (β2m) of stabilized MHC complexes. The assay was performed as generally described in Rodenko et al. (Rodenko et al., 2006).
96 well MAXISorp plates (NUNC) were coated over night with 2 ug/ml streptavidin in PBS at room temperature, washed 4× and blocked for 1 h at 37° C. in 2% BSA containing blocking buffer. Refolded HLA-A*02:01/MLA-001 monomers served as standards, covering the range of 15-500 ng/ml. Peptide-MHC monomers of the UV-exchange reaction were diluted 100-fold in blocking buffer. Samples were incubated for 1 h at 37° C., washed four times, incubated with 2 ug/ml HRP conjugated anti-β2m for 1 h at 37° C., washed again and detected with TMB solution that is stopped with […]. Absorption was measured at 450 nm. Candidate peptides that show a high exchange yield (preferably higher than 50%, most preferred higher than 75%) are generally preferred for a generation and production of antibodies or fragments thereof, and/or T cell receptors or fragments thereof, as they show sufficient avidity to the MHC molecules and prevent dissociation of the MHC complexes.

Row | Sequence | Wells positive [%] [1] | Peptide Exchange (peptide exchange yield) (HLA-A*02:01) | wells (in vitro immunogenicity, positive wells) ([1]; HLA class I peptides, Table 10A)
1 | ALAGSSPQV (listed as Homo sapiens) [SEQ ID NO: 2, HLA-A*02 peptide, source gene CNTD2] | “++” (20%-49% = ++) | “+++” (≥50 = +++) | 
2 | GLLGFQAEA (listed as Homo sapiens) [SEQ ID NO: 24, HLA-A*02 peptide, source gene MAGED1] | “++” (20%-49% = ++) | “++++” (≥75% = ++++) | 
3 | KMPEHISTV (listed as Homo sapiens) [SEQ ID NO: 1, HLA-A*02 peptide, source gene CILP] | “+” (<20% = +) | “+++” (≥50 = +++) | 
4 | SLADAVEKV (listed as Homo sapiens) [SEQ ID NO: 23, HLA-A*02 peptide, source gene CCDC122] | “+++” (50%-69% = +++) | “+++” (≥50 = +++) | 
5 | SLLTEPALV (listed as Homo sapiens) [SEQ ID NO: 21, HLA-A*02 peptide, source gene TBC1D9] | “++” (20%-49% = ++) | “+++” (≥50 = +++) | 
6 | TLSSIKVEV (listed as Homo sapiens) [SEQ ID NO: 50, peptide useful for personalized cancer therapies, source gene MXRA5] |  |  | + (<20% = +)
7 | YIDGLESRV (listed as Homo sapiens) [SEQ ID NO: 22, HLA-A*02 peptide, source gene CREB3L4] | “+” (<20% = +) | “+++” (≥50 = +++) | 
